Results on 59 compounds are retold here after article doi:10.1101/2021.10.07.463234v2 (biorxiv, 2021).

The experiment addresses SARS-CoV-2 Mac1 (Severe acute respiratory syndrome coronavirus 2, UniProt P0DTD1). Kind of experiment: biochemical. The following applies: for %inhibition: 100 µM, inhibitor; for inhibition at 100 µM: read-out: %inhibition.

Where a name gives a salt, the structure may show the parent alone.

On to `CN1CCc2nc(C(=O)N[C@@H]3C[C@@H](C(=O)N(C)C)CC[C@@H]3NC(=O)C(=O)Nc3ccc(Cl)cn3)sc2C1` [Edoxaban], for which the “%inhibition” value came out at 4.891%.
As for `O=C1Nc2ccc(Cl)cc2[C@@](C#CC2CC2)(C(F)(F)F)O1` [Efavirenz], the inhibition at 100 µM turned out to be 0%.
Still for that read-out and setting: the value for `C=C1CCN([C@H](C)[C@](O)(Cn2cncn2)c2ccc(F)cc2F)CC1` [Efinaconazole] was 2.14%; that for `NCCCC(N)(C(=O)O)C(F)F` (centres unmarked) [Eflornithine hydrochloride hydrate] was 0%.
On the same count and under the same terms, to `CC1=C(C(=O)OCCN(Cc2ccccc2)c2ccccc2)C(c2cccc([N+](=O)[O-])c2)C(P2(=O)OCC(C)(C)CO2)=C(C)N1` (centres unmarked) [Efonidipine] belongs 14.5%; to `COc1cccc(-c2c(C)n(Cc3c(F)cccc3C(F)(F)F)c(=O)n(C[C@H](NCCCC(=O)O)c3ccccc3)c2=O)c1F` [Elagolix Sodium], 0%.
The same measure, in the same setting: to `COC(=O)N[C@H](C(=O)N1CCC[C@H]1c1nc(-c2ccc3c(c2)O[C@@H](c2ccccc2)n2c-3cc3cc(-c4c[nH]c([C@@H]5CCCN5C(=O)[C@@H](NC(=O)OC)C(C)C)n4)ccc32)c[nH]1)C(C)C` [Elbasvir] belongs 8.16%; to `CN1CCC[C@@H]1Cc1c[nH]c2ccc(CCS(=O)(=O)c3ccccc3)cc12` [Eletriptan HBr], 0%; to `CCCCCCCC(=O)N[C@H](CN1CCCC1)[C@H](O)c1ccc2c(c1)OCCO2` [Eliglustat], 2.49%.
`O=c1oc2c(O)c(O)cc3c(=O)oc4c(O)c(O)cc1c4c23` [Ellagic acid]: the inhibition at 100 µM was found to be 33.1%.
On to `CC1=NN(c2ccc(C)c(C)c2)C(=O)/C1=N\Nc1cccc(-c2cccc(C(=O)O)c2)c1O` [Eltrombopag Olamine], for which the “%inhibition” value was 18.42%.
Same read-out and setting: the value for `CC1=NN(c2ccc(C)c(C)c2)C(=O)/C1=N\Nc1cccc(-c2cccc(C(=O)O)c2)c1O` [Eltrombopag] was 0%.
Turning to `COc1ccc(CN(C(=O)[C@@H](N)Cc2c(C)cc(C(N)=O)cc2C)[C@@H](C)c2ncc(-c3ccccc3)[nH]2)cc1C(=O)O` [Eluxadoline], the inhibition at 100 µM was 5.52%.
Take `COc1cc2c(cc1Cc1cccc(Cl)c1F)c(=O)c(C(=O)O)cn2[C@H](CO)C(C)C` [Elvitegravir (GS-9137, JTK-303)]: the inhibition at 100 µM is 0%.
With `CCOCCn1c(N2CCCN(C)CC2)nc2ccccc21` [Emedastine Difumarate], the “%inhibition” value came out at 0.198%.
The same measure, in the same setting: the value for `CCOCCn1c(N2CCCN(C)CC2)nc2ccccc21` [Emedastine] was 0%.
Turning to `OC[C@H]1O[C@@H](c2ccc(Cl)c(Cc3ccc(O[C@H]4CCOC4)cc3)c2)[C@H](O)[C@@H](O)[C@@H]1O` [Empagliflozin (BI 10773)], the inhibition at 100 µM was 0%.
Regarding `C[C@H](NC(=O)C(=O)Nc1ccccc1C(C)(C)C)C(=O)N[C@@H](CC(=O)O)C(=O)COc1c(F)c(F)cc(F)c1F` [Emricasan], the inhibition at 100 µM came to 21%.
As for `Nc1nc(=O)n([C@@H]2CS[C@H](CO)O2)cc1F` [Emtricitabine], the inhibition at 100 µM amounted to 0%.
On the same count and under the same terms, to `CCOC(=O)[C@H](CCc1ccccc1)N[C@@H](C)C(=O)N1CCC[C@H]1C(=O)O` [Enalapril Maleate] belongs 16.8%.
Turning to `C[C@H](N[C@@H](CCc1ccccc1)C(=O)O)C(=O)N1CCC[C@H]1C(=O)O` [Enalaprilat Dihydrate], the inhibition at 100 µM was found to be 10.6%.
Same read-out and setting: to `CC(C)(O)CNc1nc(Nc2ccnc(C(F)(F)F)c2)nc(-c2cccc(C(F)(F)F)n2)n1` [Enasidenib (AG-221)] belongs 6.78%.
Still for that read-out and setting: to `COC(=O)N[C@@H](C)CNc1nccc(-c2cn(C(C)C)nc2-c2cc(Cl)cc(NS(C)(=O)=O)c2F)n1` [Encorafenib (LGX818)] belongs 10.8%.
In the case of `CCn1cc(C(=O)O)c(=O)c2cc(F)c(N3CCNCC3)nc21` [Enoxacin Sesquihydrate], the “%inhibition” value was 0%.
On the same count and under the same terms, the value for `CCn1cc(C(=O)O)c(=O)c2cc(F)c(N3CCNCC3)nc21` [Enoxacin] was 29.69%.
For `CC1(C)[C@@H](O)CC[C@]2(C)[C@H]3C(=O)C=C4[C@@H]5C[C@@](C)(C(=O)O)CC[C@]5(C)CC[C@@]4(C)[C@]3(C)CC[C@@H]12` [Enoxolone], the inhibition at 100 µM is 0%.
Still for that read-out and setting: to `CCN1CCN(c2cc3c(cc2F)c(=O)c(C(=O)O)cn3C2CC2)CC1` [Enrofloxacin] belongs 16.9%.
Same read-out and setting: to `CCN(CC)C(=O)/C(C#N)=C/c1cc(O)c(O)c([N+](=O)[O-])c1` [Entacapone] belongs 0%.
As to `C=C1[C@H](CO)[C@@H](O)C[C@@H]1n1cnc2c(=O)[nH]c(N)nc21` [Entecavir Hydrate], the “%inhibition” value came out at 11.65%.
`C=C1[C@H](CO)[C@@H](O)C[C@@H]1n1cnc2c(=O)[nH]c(N)nc21` [Entecavir]: the “%inhibition” value is given as 0%.
As for `Nc1ccccc1NC(=O)c1ccc(CNC(=O)OCc2cccnc2)cc1` [Entinostat (MS-275)], the inhibition at 100 µM worked out at 33.3%.
With `c1cn2cc(-c3ccc4cn[nH]c4c3)nc(Nc3ccc(N4CCOCC4)cc3)c2n1` [Entospletinib (GS-9973)], the inhibition at 100 µM worked out at 29.5%.
Same read-out and setting: the value for `CN1CCN(c2ccc(C(=O)Nc3n[nH]c4ccc(Cc5cc(F)cc(F)c5)cc34)c(NC3CCOCC3)c2)CC1` [Entrectinib (RXDX-101)] was 8.59%; that for `Cn1cc(C2=C(c3cn(C4CCN(Cc5ccccn5)CC4)c4ccccc34)C(=O)NC2=O)c2ccccc21` [Enzastaurin (LY317615)] was 34.6%.
Take `NS(=O)(=O)NCCNc1nonc1/C(=N/O)Nc1ccc(F)c(Br)c1` [Epacadostat (INCB024360)]: the inhibition at 100 µM is 14.8%.
Still for that read-out and setting: the value for `CC(/C=C1\SC(=S)N(CC(=O)O)C1=O)=C\c1ccccc1` [Epalrestat] was 0%; that for `CCc1ccc(C(=O)C(C)CN2CCCCC2)cc1` (centres unmarked) [Eperisone hydrochloride] was 10.4%; that for `NC1=NCC2c3ccccc3Cc3ccccc3N12` (centres unmarked) [Epinastine HCl] was 4.62%.
Turning to `CNC[C@H](O)c1ccc(O)c(O)c1` [Epinephrine HCl], the “%inhibition” value is 5.697%.
Regarding `CNC[C@H](O)c1ccc(O)c(O)c1` [Epinephrine bitartrate], the inhibition at 100 µM came to 10.7%.
Same read-out and setting: to `COc1cccc2c1C(=O)c1c(O)c3c(c(O)c1C2=O)C[C@@](O)(C(=O)CO)C[C@@H]3O[C@H]1C[C@H](N)[C@@H](O)[C@H](C)O1` [Epirubicin HCl] belongs 51.4%; to `COC(=O)[C@@H]1CC2=CC(=O)CC[C@]2(C)[C@@]23O[C@@H]2C[C@@]2(C)[C@@H](CC[C@@]24CCC(=O)O4)[C@H]13` [Eplerenone], 3.58%; to `CCOC(CN1CCN(CC(C)C(=O)c2ccccc2)CC1)c1ccccc1` (centres unmarked) [Eprazinone 2HCl], 0%.
Same read-out and setting: to `O=S(=O)(O)CCCS(=O)(=O)O` [Eprodisate disodium] belongs 0%; to `CCCCc1ncc(/C=C(\Cc2cccs2)C(=O)O)n1Cc1ccc(C(=O)O)cc1` [Eprosartan Mesylate], 26.7%.
Take `O=C(O)CSCC(=O)NC1CCSC1=O` (centres unmarked) [Erdosteine]: the inhibition at 100 µM was 12.3%.
Turning to `C#Cc1cccc(Nc2ncnc3cc(OCCOC)c(OCCOC)cc23)c1` [Erlotinib HCl (OSI-744)], the “%inhibition” value is 12.32%.
Consider `C#Cc1cccc(Nc2ncnc3cc(OCCOC)c(OCCOC)cc23)c1` [Erlotinib], for which the “%inhibition” value amounted to 10.85%.
Take `C[C@@H](O)[C@H]1C(=O)N2C(C(=O)O)=C(S[C@@H]3CN[C@H](C(=O)Nc4cccc(C(=O)O)c4)C3)[C@H](C)[C@H]12` [Ertapenem sodium]: the inhibition at 100 µM came to 2.44%.
In the case of `CCOc1ccc(Cc2cc([C@]34OC[C@](CO)(O3)[C@@H](O)[C@H](O)[C@H]4O)ccc2Cl)cc1` [Ertugliflozin], the inhibition at 100 µM worked out at 26.2%.
The same measure, in the same setting: to `CCOC(=O)CCC(=O)O[C@H]1[C@H](O[C@@H]2[C@@H](C)[C@H](O[C@H]3C[C@@](C)(OC)[C@@H](O)[C@H](C)O3)[C@@H](C)C(=O)O[C@H](CC)[C@@](C)(O)[C@H](O)[C@@H](C)C(=O)[C@H](C)C[C@@]2(C)O)O[C@H](C)C[C@@H]1N(C)C` [Erythromycin Ethylsuccinate] belongs 0%.
Take `CC[C@H]1OC(=O)[C@H](C)[C@@H](O[C@H]2C[C@@](C)(OC)[C@@H](O)[C@H](C)O2)[C@H](C)[C@@H](O[C@@H]2O[C@H](C)C[C@H](N(C)C)[C@H]2O)[C@](C)(O)C[C@@H](C)C(=O)[C@H](C)[C@@H](O)[C@]1(C)O` [Erythromycin thiocyanate]: the “%inhibition” value stood at 1.029%.
The same measure, in the same setting: to `CC[C@H]1OC(=O)[C@H](C)[C@@H](O[C@H]2C[C@@](C)(OC)[C@@H](O)[C@H](C)O2)[C@H](C)[C@@H](O[C@@H]2O[C@H](C)C[C@H](N(C)C)[C@H]2O)[C@](C)(O)C[C@@H](C)C(=O)[C@H](C)[C@@H](O)[C@]1(C)O` [Erythromycin] belongs 0%.
Take `C/C=C(\C)C(=O)O[C@H]1[C@H](OC(C)=O)[C@@]2(CO)C(CC1(C)C)C1=CCC3[C@@]4(C)CCC(O[C@@H]5O[C@H](C(=O)O)[C@@H](O[C@@H]6O[C@H](CO)[C@@H](O)[C@H](O)[C@H]6O)[C@H](O)[C@H]5O[C@@H]5O[C@H](CO)[C@@H](O)[C@H](O)[C@H]5O)[C@](C)(CO)C4CC[C@@]3(C)[C@]1(C)C[C@H]2O` (some centres unmarked) [Escin]: the inhibition at 100 µM amounted to 6.9%.
As to `CN(C)CCC[C@@]1(c2ccc(F)cc2)OCc2cc(C#N)ccc21` [Escitalopram Oxalate], the inhibition at 100 µM is 0%.
Turning to `CC(=O)O[C@H]1Cc2ccccc2N(C(N)=O)c2ccccc21` [Eslicarbazepine Acetate], the inhibition at 100 µM is 0%.
Same read-out and setting: the value for `COC(=O)CCc1ccc(OCC(O)CNC(C)C)cc1` (centres unmarked) [Esmolol HCl] was 12%.
On to `COc1ccc2[nH]c([S@@+]([O-])Cc3ncc(C)c(OC)c3C)nc2c1` [Esomeprazole sodium], for which the “%inhibition” value worked out at 0%.
Take `C[C@]12CC[C@@H]3c4ccc(OC(=O)c5ccccc5)cc4CC[C@H]3[C@@H]1CC[C@@H]2O` [Estradiol Benzoate]: the inhibition at 100 µM was found to be 20.5%.
